Experimental data as given in patent publication US20020052331A1, “Compositions and methods for antisense inhibition of protein translation” (priority 1990, published 2002).
Where two headings read alike, the source gives them in different places. Strand notation (5' to 3'): a small letter for the sugar, then the base; units joined by * are phosphorothioate-linked, units joined directly phosphodiester-linked; [ ] holds rarer units or linkages, { } end groups; capitals alone tell only the bases. [MMI] = methylene(methylimino) internucleoside backbone linkage; e = 2'-O-(2-methoxyethyl) (MOE); [5mC] = 5-methylcytosine; d = 2'-deoxy (DNA)

How the values were obtained:
Format in all cases: cell-based, human
ICAM-1 mRNA [1] = assay: Northern blot analysis of ICAM-1 transcript abundance in oligomer-treated HUVECs; conditions: FIG. 2
Text: Total cellular RNA was isolated from oligomer-treated HUVECs and analyzed to determine if inhibition of ICAM-1 protein expression resulted from antisense-promoted degradation of the target transcript.
(§1) Total cellular RNA was isolated by cellular lysis using CATRIMOX-14 surfactant (Iowa Biotechnology Group, Oakdale Iowa). Isolated RNA was separated on a 1.2% agarose gel containing 1.1% formaldehyde, then transferred to a nylon membrane and UV crosslinked to the membrane using a Stratagene UV crosslinker 2400 (La Jolla Calif.). Blots were hybridized with cDNA probes in QUICKHYB solution (Stratagene). Blots were washed twice at room temperature in 2×SSC with 0.1% SDS for 10 minutes each and then once in […] SSC with 0.1% SDS at 65° C. for 30 minutes.

E-selectin mRNA [2] = assay: Northern blot analysis of E-selectin mRNA levels in oligomer-treated HUVECs
Text: ISIS 11929 is an antisense oligonucleotide targeted to E-selectin, another cellular adhesion molecule, and was included in this experiment as a control.
as §1

E-selectin mRNA [3] = assay: ELISA of E-selectin expression in HUVECs; conditions: HUVECs; for IC50: ELISA, read-out: IC50 for reduction of E-selectin expression
ICAM-1 mRNA [4] = assay: Cell surface ICAM-1 expression in U937 cells after electroporation of MMI oligomers; conditions: six concentrations 4 to 40 μM, N.A. = IC50 not obtained in the given dose range, read-out: Antisense activity (IC50) Electroporate
Procedure: ISIS 14293-14296 are corresponding oligomers with alternating MMI/P═S backbones.
U937 cells were washed once in cold Opti-MEM (Gibco-BRL, Grand Island, N.Y.) and resuspended at 4×10^6 cells/ml. Oligomer was added to 0.1 ml of cells and incubated for 10 minutes on ice. Cells were transferred to a 1 mm gap electrode (BTX, San Diego, Calif.) and electroporated at 0.75 kV/cm. Cells were incubated at room temperature for 10 minutes and transferred to pre-warmed medium. Cells were allowed to rest for 1.5 hours before ICAM-1 expression was induced with 5 ng/ml TNF-αovernight. Cells were stained with an anti-ICAM-1-PE antibody (Pharmingen, San Diego CA) the next day.

ICAM-1 mRNA [5] = assay: Cell surface ICAM-1 expression in HUVECs after Lipofectin delivery of MMI oligomers; conditions: six concentrations 6.2 to 200 nM, N.A. = IC50 not obtained in the given dose range, read-out: Antisense activity (IC50) Lipofectin

| Substance | relative abundance of the ICAM-1 transcript (Northern blot) (ICAM-1 mRNA [1]) | E-selectin mRNA levels (E-selectin mRNA [2]) | IC50 (E-selectin mRNA [3]; FIG. 5 experiment) [nM] | IC50 (E-selectin mRNA [3]; equivalent (second) experiment) [nM] | IC50 for inhibition of E-selectin expression (E-selectin mRNA [3]; FIG. 3 experiment) | inhibition of E-selectin expression (E-selectin mRNA [3]; oligomer concentration of 50 nM) [%] | IC50 (ICAM-1 mRNA [4]) [nM] | IC50 (ICAM-1 mRNA [5]) [nM] |
| --- | --- | --- | --- | --- | --- | --- | --- | --- |
| ISIS 11929: SEQ ID NO: 3, P═O all 2′-MOE except 3′ nt is deoxy, all C's 5meC; E-selectin 5′ cap (antisense eGeAeAeGeTe[5mC]eAeGe[5mC]e[5mC]eAeAeGeAeAe[5mC]eAeGe[5mC]dT) | did not cause an increase | did cause an increase | < 3 | < 3 | well below this | ~100 | – | – |
| ISIS 14294: T*GA*GT*AG*CA*GA*GG*AG*CT*C (SEQ ID NO: 12), alternating P═S/MMI; ICAM-1 n.t. 1-18 (TGAGTAGCAGAGGAGCTC; linkages [MMI]s[MMI]s[MMI]s[MMI]s[MMI]s[MMI]s[MMI]s[MMI]s[MMI] (s phosphorothioate, o phosphodiester), sugars by position and methylation of C not given here; 3'-terminal nucleotide 2'-deoxy, non-terminal cytosines 5-methylated) | – | – | – | – | – | – | 20000 | 175 |
